Results: patent US20120121540A1 (priority 2007, published 2012)

Test: HCV replicon assay (luciferase reporter, ET cell line)
Assay type: cell-based
Conditions: Hepatitis C virus, HCV replicon luciferase activity in ET cells
Summary of the method: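 EC50 and, via WST-1 cytotoxicity, TC50 were fitted with a Hill-coefficient equation to % inhibition across 10 two-fold dilutions. Compounds at 0.1 nM-[…] with 0.5% DMSO were applied 24 h post-seeding to replicon-bearing ET cells (luc-ubi-neo/NS3-5B, adaptive mutations). Firefly luciferase signal was measured after 48-72 h.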

## O=C(c1nc2c(C(F)(F)F)cc(-c3ccoc3)cn2c1Cl)N1CCC=C(c2ccccc2F)C1 [Compound 591, (3-Chloro-6-furan-3-yl-8-trifluoromethyl-imidazo[1,2-a]pyridine-2-yl)-[5-(2-fluoro-phenyl)-3,6-dihydro-2H-pyridin-1-yl]-methanone]
  inhibition at 10 µM: 96.9%

## O=C(c1nc2c(C(F)(F)F)cc(-c3cn[nH]c3)cn2c1Cl)N1CC=C(c2ncccc2F)C1 [Compound 592]
  inhibition at 10 µM: 97.1%

## O=C(c1nc2c(C(F)(F)F)cc(-c3ccoc3)cn2c1Cl)N1CCC(Oc2ccccc2)C1 (stereo not drawn) [Compound 593, (3-Chloro-6-furan-3-yl-8-trifluoromethyl-imidazo[1,2-a]pyridin-2-yl)-(3-phenoxy-pyrrolidin-1-yl)-methanone]
  inhibition at 10 µM: 89.5%

## O=C(c1nc2c(C(F)(F)F)cc(-c3ccoc3)cn2c1Cl)N1CC=C(c2ccccc2)CC1 [Compound 594, (3-Chloro-6-furan-3-yl-8-trifluoromethyl-imidazo[1,2-a]pyridin-2-yl)-(4-phenyl-3,6-dihydro-2H-pyridin-1-yl)-methanone]
  inhibition at 10 µM: 88.5%

## O=C(c1nc2c(C(F)(F)F)cc(-c3ccoc3)cn2c1Cl)N1CC=C(c2ccc(F)cc2)CC1 [Compound 595, (3-Chloro-6-furan-3-yl-8-trifluoromethyl-imidazo[1,2-a]pyridin-2-yl)-[4-(4-fluoro-phenyl)-3,6-dihydro-2H-pyridin-1-yl]-methanone]
  inhibition at 10 µM: 77.2%

## O=C(c1nc2c(C(F)(F)F)cc(-c3ccoc3)cn2c1Cl)N1CCN(c2ccc(F)cc2F)CC1 [Compound 596, (3-Chloro-6-furan-3-yl-8-trifluoromethyl-imidazo[1,2-a]pyridin-2-yl)-[4-(2,4-difluoro-phenyl)-piperazin-1-yl]-methanone]
  inhibition at 10 µM: 75.6%

## O=C(c1nc2c(C(F)(F)F)cc(-c3ccoc3)cn2c1Cl)N1CCN(c2ncccn2)CC1 [Compound 597, (3-Chloro-6-furan-3-yl-8-trifluoromethyl-imidazo[1,2-a]pyridin-2-yl)-(4-pyrimidin-2-yl-piperazin-1-yl)-methanone]
  inhibition at 10 µM: 38.7%

## O=C(c1nc2c(C(F)(F)F)cc(-c3ccoc3)cn2c1Cl)N1CCC(c2cccs2)CC1 [Compound 598, [3-chloro-6-(furan-3-yl)-8-(trifluoromethyl)imidazo[1,2-a]pyridin-2-yl][4-(thiophen-2-yl)piperidin-1-yl]methanone]
  inhibition at 10 µM: 95.9%

## O=C(c1nc2c(C(F)(F)F)cc(-c3ccoc3)cn2c1Cl)N1CCC(Nc2ccccc2)C1 (stereo not drawn) [Compound 599, (3-Chloro-6-furan-3-yl-8-trifluoromethyl-imidazo[1,2-a]pyridin-2-yl)-(3-phenylamino-pyrrolidin-1-yl)-methanone]
  inhibition at 10 µM: 91.1%

## CC(=O)N(c1ccccc1)C1CCN(C(=O)c2nc3c(C(F)(F)F)cc(-c4ccoc4)cn3c2Cl)C1 (stereo not drawn) [Compound 600, N-[1-(3-Chloro-6-furan-3-yl-8-trifluoromethyl-imidazo[1,2-a]pyridine-2-carbonyl)-pyrrolidin-3-yl]-N-phenyl-acetamide]
  inhibition at 10 µM: 76%

## N#CC1(c2ccccc2)CCN(C(=O)c2nc3c(C(F)(F)F)cc(-c4ccoc4)cn3c2Cl)CC1 [Compound 601, 1-(3-Chloro-6-furan-3-yl-8-trifluoromethyl-imidazo[1,2-a]pyridine-2-carbonyl)-4-phenyl-piperidine-4-carbonitrile]
  inhibition at 10 µM: 98.3%

## O=C(NC(c1ccccc1)c1cccs1)c1nc2c(C(F)(F)F)cc(-c3ccoc3)cn2c1Cl (stereo not drawn) [Compound 602, 3-Chloro-6-furan-3-yl-8-trifluoromethyl-imidazo[1,2-a]pyridine-2-carboxylic Acid (phenyl-thiophen-2-yl-methyl)-amide]
  inhibition at 10 µM: 90.5%

## O=C(Cc1nc2c(C(F)(F)F)cc(-c3ccoc3)cn2c1Cl)NCc1cccs1 [Compound 603, 2-[3-Chloro-6-(furan-3-yl)-8-(trifluoromethyl)imidazo[1,2-a]pyridin-2-yl]-N-(thiophen-2-ylmethyl)acetamide]
  inhibition at 10 µM: 65.8%

## O=C(Cc1nc2c(C(F)(F)F)cc(-c3ccoc3)cn2c1Cl)N1CCC(c2cccc(F)c2)C1 (stereo not drawn) [Compound 604, 2-[3-chloro-6-(furan-3-yl)-8-(trifluoromethyl)imidazo [1,2-a]pyridin-2-yl]-1-[3-(3-fluorophenyl)pyrrolidin-1-yl]ethanone]
  inhibition at 10 µM: 74.1%

## O=C(c1nc2c(C(F)(F)F)cc(-c3ccoc3)cn2c1Cl)N1CCC(n2cnc3ccccc32)CC1 [Compound 605, (4-Benzoimidazol-1-yl-piperidin-1-yl)-(3-chloro-6-furan-3-yl-8-trifluoromethyl-imidazo[1,2-a]pyridin-2-yl)-methanone]
  inhibition at 10 µM: 3.1%

## O=C(c1nc2c(C(F)(F)F)cc(-c3cn[nH]c3)cn2c1Cl)N1CCC(c2ccccc2F)CC1 [Compound 606, [3-Chloro-6-(1H-pyrazol-4-yl)-8-trifluoromethyl-imidaz [1,2-a]pyridin-2-yl]-[4-(2-fluoro-phenyl)-piperidin-1-yl]-methanone]
  inhibition at 10 µM: 87.9%

## N#Cc1ccccc1C1CCN(C(=O)c2nc3c(C(F)(F)F)cc(-c4cn[nH]c4)cn3c2Cl)CC1 [Compound 607, 2-{1-[3-Chloro-6-(1H-pyrazol-4-yl)-8-trifluoromethyl-imidazo[1,2-a]pyridine-2-carbonyl]-piperidin-4-yl}-benzonitrile]
  inhibition at 10 µM: 92.2%

## O=C(c1nc2c(C(F)(F)F)cc(-c3cn[nH]c3)cn2c1Br)N1CC=C(c2ccc(F)cc2)CC1 [Compound 608, [3-Bromo-6-(1H-pyrazol-4-yl)-8-trifluoromethyl-imidazo[1,2-a]pyridin-2-yl]-[4-(4-fluoro-phenyl)-3,6-dihydro-2H-pyridin-1-yl]-methanone]
  inhibition at 10 µM: 62.7%

## O=C(c1nc2c(C(F)(F)F)cc(-c3cn[nH]c3)cn2c1Br)N1CC=C(c2cscn2)CC1 [Compound 609, [3-Bromo-6-(1H-pyrazol-4-yl)-8-trifluoromethyl-imidazo[1,2-a]pyridin-2-yl]-(4-thiazol-4-yl-3,6-dihydro-2H-pyridin-1-yl)-methanone]
  inhibition at 10 µM: 94.1%

## O=C(c1nc2c(C(F)(F)F)cc(-c3cn[nH]c3)cn2c1Br)N1CCN(c2nccs2)CC1 [Compound 610, [3-Bromo-6-(1H-pyrazol-4-yl)-8-trifluoromethyl-imidazo[1,2-a]pyridin-2-yl]-(4-thiazol-2-yl-piperazin-1-yl)-methanone]
  inhibition at 10 µM: 68.7%

## O=C(c1nc2c(C(F)(F)F)cc(-c3cn[nH]c3)cn2c1Br)N1CCC(c2nccs2)CC1 [Compound 611, [3-Bromo-6-(1H-pyrazol-4-yl)-8-trifluoromethyl-imidazo[1,2-a]pyridin-2-yl]-(4-thiazol-2-yl-piperidin-1-yl)-methanone]
  inhibition at 10 µM: 92.4%

## O=C(c1cn2cc(-c3cn[nH]c3)cc(C(F)(F)F)c2n1)N1CC=C(c2nccs2)CC1 [Compound 612, [6-(1H-pyrazol-4-yl)-8-(trifluoromethyl)imidazo[1,2-a]pyridin-2-yl][4-(1,3-thiazol-2-yl)-3,6-dihydropyridin-1(2H)-yl]methanone]
  inhibition at 10 µM: 59.3%

## O=C(c1nc2c(C(F)(F)F)cc(-c3ccoc3)cn2c1Cl)N1CC=C(c2cccs2)CC1 [Compound 613, (3-Chloro-6-furan-3-yl-8-trifluoromethyl-imidazo[1,2-a]pyridin-2-yl)-(4-thiophen-2-yl-3,6-dihydro-2H-pyridin-1-yl)-methanone]
  inhibition at 10 µM: 99.4%

## N#Cc1c(F)cccc1C1=CCN(C(=O)c2nc3c(C(F)(F)F)cc(-c4ccoc4)cn3c2Cl)CC1 [Compound 614, 2-[1-(3-Chloro-6-furan-3-yl-8-trifluoromethyl-imidazo[1,2-a]pyridine-2-carbonyl)-1,2,3,6-tetrahydro-pyridin-4-yl]-6-fluoro-benzonitrile]
  inhibition at 10 µM: 89.7%

## COc1ccc(F)c(C2=CCN(C(=O)c3nc4c(C(F)(F)F)cc(-c5ccoc5)cn4c3Cl)CC2)c1F [Compound 616, (3-Chloro-6-furan-3-yl-8-trifluoromethyl-imidazo[1,2-a]pyridin-2-yl)-[4-(2,6-difluoro-3-methoxy-phenyl)-3,6-dihydro-2H-pyridin-1-yl]-methanone]
  inhibition at 10 µM: 64.9%

## O=C(c1nc2c(C(F)(F)F)cc(-c3ccoc3)cn2c1Cl)N1CC=C(c2ccc(F)nc2F)CC1 [Compound 617, (3-Chloro-6-furan-3-yl-8-trifluoromethyl-imidazo[1,2-a]pyridin-2-yl)-(2,6-difluoro-3′,6′-dihydro-2′H-[3,4′]bipyridinyl-1′-yl)-methanone]
  inhibition at 10 µM: 95%

## O=C(c1nc2c(C(F)(F)F)cc(-c3ccoc3)cn2c1Cl)N1CC=C(c2cncnc2)CC1 [Compound 618, [3-chloro-6-(furan-3-yl)-8-(trifluoromethyl)imidazo[1,2-a]pyridin-2-yl][4-(pyrimidin-5-yl)-3,6-dihydropyridin-1(2H)-yl]methanone]
  inhibition at 10 µM: 95.9%

## O=C(c1nc2c(C(F)(F)F)cc(-c3ccoc3)cn2c1Cl)N1CC=C(C2=CN=CNC2)CC1 [Compound 619, [3-chloro-6-(furan-3-yl)-8-(trifluoromethyl)imidazo[1,2-a]pyridin-2-yl][4-(1,6-dihydropyrimidin-5-yl)-3,6-dihydropyridin-1(2H)-yl]methanone]
  inhibition at 10 µM: 44%

## Cn1cc(-c2cc(C(F)(F)F)c3nc(C(=O)N4CCC(c5cccc(F)c5)C4)c(Cl)n3c2)cn1 (stereo not drawn) [Compound 624, [3-Chloro-6-(1-methyl-1H-pyrazol-4-yl)-8-trifluoromethyl-imidazo[1,2-a]pyridin-2-yl]-[3-(3-fluoro-phenyl)-pyrrolidin-1-yl]-methanone]
  inhibition at 10 µM: 63.9%

## Cc1n[nH]cc1-c1cc(C(F)(F)F)c2nc(C(=O)N3CCC(c4cccc(F)c4)C3)c(Cl)n2c1 (stereo not drawn) [Compound 625, [3-Chloro-6-(3-methyl-1H-pyrazol-4-yl)-8-trifluoromethyl-imidazo[1,2-a]pyridin-2-yl]-[3-(3-fluoro-phenyl)-pyrrolidin-1-yl]-methanone]
  inhibition at 10 µM: 59.8%
